For data set [1] the following is noted: background art; cited from earlier work.
The subject of another data set is S1P3 receptor. To be noted: background art; cited from earlier work.
Data set [2] has as its target T1, S1P1 (Homo sapiens, UniProt P21453). Nature of the data set: β-arrestin recruitment after S1P1 receptor activation, S1P1 overexpressing cell line (luminescence). To be noted: based on the two EC50 values of Table 1. A general note: Recruitment of arrestin is a read-out of receptor activation apart from second messengers.
In the next data set the test system is S1P5. To be noted: background art; cited from earlier work.
In data set [3] the target is T1, S1P1. To be noted: background art; cited from earlier work.

T1 sequence (P21453 whole entry): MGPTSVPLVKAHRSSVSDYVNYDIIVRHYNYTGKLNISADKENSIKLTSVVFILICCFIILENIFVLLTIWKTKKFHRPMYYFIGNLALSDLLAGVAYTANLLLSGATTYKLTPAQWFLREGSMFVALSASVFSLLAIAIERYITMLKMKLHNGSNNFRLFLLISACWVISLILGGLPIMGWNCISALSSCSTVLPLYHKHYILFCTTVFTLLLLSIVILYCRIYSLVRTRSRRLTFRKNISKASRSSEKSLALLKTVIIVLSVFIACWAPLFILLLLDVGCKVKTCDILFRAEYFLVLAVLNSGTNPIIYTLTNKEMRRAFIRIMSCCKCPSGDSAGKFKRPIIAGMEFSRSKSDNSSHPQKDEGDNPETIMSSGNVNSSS

For `CCCCCCCCc1ccc(CCC(N)(CO)CO)cc1` [fingolimod], in data set [1], the bradycardia side effect result is on record as “causes bradycardia”. The “activation of S1P3” value in the data set with S1P3 receptor was “activation of the S1P3 receptor”.
For the compound `CC(C)Oc1ccc(-c2ncc(-c3ccc(CN4CC(C(=O)[O-])C4)cc3)[se]2)cc1Cl.[Na+]` [Compound 13, Sodium 1-(4-(2-(3-chloro-4-isopropoxyphenyl)-1,3-selenazole-5-yl)benzyl)azetidine-3-carboxylate], the “S1P1 activity (overall, in words)” value at S1P1 [2] is on record as “excellent activity”.
On to `CCc1cc(/C(C)=N/OCc2ccc(C3CCCCC3)c(C(F)(F)F)c2)ccc1CN1CC(C(=O)O)C1` [BAF312], for which the “activity against S1P5” value in the data set on S1P5 is “excellent activity”. In addition, the bradycardia side effect entry in data set [1] was “bradycardia, a side effect of FTY720, still occurred”. Moreover, the “activity against S1P1” value at S1P1 [3] is given as “excellent activity”. In addition, the “activation of S1P3” value in the data set with S1P3 receptor is “without activating S1P3”.

The values are drawn from US20260355161A1, “NOVEL HETEROCYCLYL-PHENYL-METHYLAMINE DERIVATIVES, PREPARATION METHOD THEREOF, AND USE THEREOF IN PREVENTING, ALLEVIATING, OR TREATING MULTIPLE SCLEROSIS” (Cureverse Incorporated, priority 2022, published 2026).
